Assay [1] has as its system S. aureus SH1000 WT biofilms. Description: ThT fluorescence assay of amyloid formation in S. aureus SH1000 WT biofilm cultures. The following applies: 24 h, 37° C., peptide 80 μM unless otherwise noted, vs peptide-free control. The class given is cell-based, Staphylococcus aureus. As to the method: We developed a novel protocol to identify amyloid fibril formation during biofilm development in two S. aureus strains—SH1000 WT, a rsbU^+ laboratory strain^27, and MN8, a clinical strain isolated from the human urogenital tract (Table 1). After 24 hours of batch growth in microtiter plates, biofilms were washed and incubated with Thioflavin T (ThT), and the resulting fluorescence signals served as a proxy for the extent of PSM fibril formation in the EM (FIG. 1A). Next, we utilized this assay to test α-sheet amyloid inhibitor designs and control peptides (sequences provided in Table 2) in batch biofilm cultures. The first inhibitor used is AP90 (Alternating Peptide #90, referred to as α1 previously^25,26). […]
Overnight cultures of S. aureus (see Table 1 for a list of strains used in this study) were spun down and re-suspended in fresh Luria-Bertani (LB) media to an optical density of 0.1 (600 nm). […] The detached biofilm suspensions were transferred to a 96-well black-walled plate (Corning, TC-treated polystyrene) and ThT fluorescence was read at 438/495 nm on a Perkin-Elmer Enspire™ plate reader. Fluorescence measurements were corrected by subtracting the background intensity of identical samples without ThT. […] After 15 minutes of incubation at room temperature, fluorescence ratios of the two dyes were determined using a Perkin-Elmer Enspire™ plate reader.

The test system of the next assay is SA. Kind of assay: Crystal violet biofilm assay. The class given is cell-based, Staphylococcus aureus. The source says:
Furthermore, these same inhibitors are active against EC, SE, and SM.

The next assay addresses CsgA (Escherichia coli, UniProt P28307). The conditions noted are these: dimeric AP193, 14:1 molar ratio (CsgA:AP193), 150 h, 25° C.
Assay [2] relates to E. coli UTI89 vsfGFP-9 biofilms. Description: Immune clearance test: phagocytosis of biofilm bacteria by RAW 264.7 macrophages (flow cytometry). The class given is cell-based. The conditions noted are these: RAW 264.7 cells, 10:1 bacteria:cell, 30 min, 37° C. As to the method:
FIG. 14. The macrophages are not able to phagocytose biofilm-associated bacteria (A). Administration of AP193 breaks up the biofilms and yields a greater fraction of free-swimming bacteria that are susceptible to phagocytosis (B).
To investigate this proposition, biofilms were cultivated in the presence or absence of synthetic α-sheet peptides (shown for AP193 in FIG. 14) and then co-incubated with murine macrophages. A chromosome-based GFP derivative of E. coli UTI89, vsfGFP-9, was used to visualize the extent of phagocytosis in each case with flow cytometry. Murine monocyte/macrophage-like cells, RAW 264.7, were cultured in DMED+10% FBS at 37° C. in 75 cm^2 flasks. Biofilms were grown in 48 well plates for 48 h in YESCA broth+4% DMSO at 26° C. Planktonic cells were aspirated and biofilms rinsed and gently detached from plates using sterile PBS. The suspensions were combined in a 10:1 (bacteria:cell) ratio with RAW 264.7 cells and incubated for 30 min at 37° C. in PBS to allow uptake of bacteria by macrophages. Trypsin was added at a concentration of 0.25% and incubated for 10 min to remove any bacteria bound to the external surfaces of the RAW 264.7 cells. […] Cells were then gated according to positive GFP (phagocytosed bacteria) using bacteria-free controls on a FACS Cantoll flow cytometer, and the percentage of cells positive for GFP was recorded and analyzed.
For orientation: A flow cytometer gives signals particle by particle.

The next assay has as its system UTI89 WT biofilms. Description: Biofilm adherence to glass slides after washing. The class given is cell-based, E. coli. The conditions noted are these: after gentle washing. The source says:
FIG. 12. […] Error bars indicate standard deviation of the mean of at least three replicates. Significance values are p<0.05: *, p<0.01: **, p<0.001: ***.
UTI89 biofilms were also cultivated in the presence of an unstructured peptide, P1, which retains a mixture of L- and D-amino acids but lacks the α-sheet secondary structure of AP193.

Positions of bridges follow the written chain, without caps; N, C: chain ends. Non-standard residues stand in square brackets, D forms with d. No end group written: not given here.

Chain of CsgA (P28307 21-151): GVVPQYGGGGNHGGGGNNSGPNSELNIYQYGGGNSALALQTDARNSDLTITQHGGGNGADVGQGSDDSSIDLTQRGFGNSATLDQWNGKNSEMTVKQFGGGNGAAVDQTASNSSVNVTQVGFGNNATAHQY
Experimental for CsgA: A) CsgA aggregation monitored by ThT fluorescence. […] Error bars represent one standard deviation from the mean of three replicates.
For inhibition assays with CsgA, purified, recombinant CsgA was desalted from a stock solution containing 8 M Gnd HCl into 50 mM potassium phosphate buffer (KPi, pH 6.2) and diluted to a final concentration of 0.2 mg/m L. Samples were aliquoted into 96 well plates and incubated quiescently at 25° C. Plates were removed for periodic measurements in a plate reader, where the fluorescence of Thioflavin T (ThT) was used to monitor protein fibril formation in real time. ThT fluoresces upon binding p-sheet structure and serves as a proxy for amyloid fibril content.
In some samples, the dimeric α-sheet peptide AP193 was also added to the mixture at a molar ratio of 14:1 (CsgA:AP193). After 150 h incubation, the extent of amyloid formation in the two samples was measured by ThT fluorescence (FIG. 11C).

“RGEmNlCwMNEYSGWcMnLkMGR (RGE[dM]N[dL]C[dW]MNEYSGW[dC]M[dN]L[dK]MGR; disulfide 7-16 (inferred)) [AP407, variant of AP90 with a disulfide bond]”: the “Reduction of amyloid fibril formation (ThT fluorescence)” value in assay [1] came to 56%.
On to “RGEmNlSwMNEYSGWtMnLkMGR (RGEMNLSWMNEYSGWTMNLKMGR; not fully specified (residues 4, 6, 8, 16, 18, 20); printed as RGEmNlSwMNEYSGWtMnLkMGR) [AP90]”, for which, in the assay with SA, the “Biofilm inhibition (crystal violet, FIG. 10)” value is listed as “inhibition”.
For “RGEmNyFwMNEYYGWtMnCkMGR (RGE[dM]N[dY]F[dW]MNEYYGW[dT]M[dN]C[dK]MGR) [AP193, hydrophobic AP90 derivative, variant to support different chemical coupling reactions]”, in the assay with CsgA, the “CsgA fibril formation (endpoint ThT fluorescence)” value is given as “significantly reduced”. Besides, the “Susceptibility of biofilm bacteria to phagocytosis” value in assay [2] is “more susceptible to phagocytosis”. Further, the “Adherence of biofilm to glass slides” value in the assay with UTI89 WT biofilms is “far less adherent to glass slides”.

For the origin of these results see patent US11033604B2, “Reagents and methods for treating bacterial infection” (priority 2018, dated 2021).
